Experimental data from ChEMBL document CHEMBL1153245, “A profile of the in vitro anti-tumor activity of imidazolium-based ionic liquids” (2010).

Columns and labels:
Format in all cases: functional
[1] = test system: HOP-92; experiment: Anticancer activity against human HOP92 cells after 48 hrs by sulforhodamine B assay; details: Homo sapiens, HOP-92, 48 h
[2] = test system: NCI-H23; experiment: Anticancer activity against human NCI-H23 cells after 48 hrs by sulforhodamine B assay; details: Homo sapiens, NCI-H23, 48 h
[3] = test system: U-251; experiment: Anticancer activity against human U251 cells assessed cell growth at 10 uM after 48 hrs by sulforhodamine B assay relative to control
[4] = test system: 786-0; experiment: Anticancer activity against human 786-0 cells after 48 hrs by sulforhodamine B assay; details: Homo sapiens, 786-0, 48 h
[5] = test system: UACC-257; experiment: Anticancer activity against human UACC257 cells assessed cell growth at 10 uM after 48 hrs by sulforhodamine B assay relative to control
[6] = test system: U-251; experiment: Anticancer activity against human U251 cells after 48 hrs by sulforhodamine B assay; details: Homo sapiens, U-251, 48 h
[7] = test system: KM12; experiment: Anticancer activity against human KM12 cells after 48 hrs by sulforhodamine B assay; details: Homo sapiens, KM12, 48 h
[8] = test system: BT-549; experiment: Anticancer activity against human BT549 cells assessed cell growth at 10 uM after 48 hrs by sulforhodamine B assay relative to control
[9] = test system: DU-145; experiment: Anticancer activity against human DU145 cells after 48 hrs by sulforhodamine B assay; details: Homo sapiens, DU-145, 48 h
[10] = test system: CAKI-1; experiment: Anticancer activity against human Caki1 cells after 48 hrs by sulforhodamine B assay; details: Homo sapiens, CAKI-1, 48 h
[11] = test system: SN12C; experiment: Anticancer activity against human SN12C cells after 48 hrs by sulforhodamine B assay; details: Homo sapiens, SN12C, 48 h
[12] = test system: NCI-H460; experiment: Anticancer activity against human NCI-H460 cells after 48 hrs by sulforhodamine B assay; details: Homo sapiens, NCI-H460, 48 h
[13] = test system: OVCAR-3; experiment: Anticancer activity against human OVCAR-3 cells after 48 hrs by sulforhodamine B assay; details: Homo sapiens, OVCAR-3, 48 h
[14] = test system: SF-295; experiment: Anticancer activity against human SF295 cells after 48 hrs by sulforhodamine B assay; details: Homo sapiens, SF-295, 48 h
[15] = test system: BT-549; experiment: Anticancer activity against human BT549 cells after 48 hrs by sulforhodamine B assay; details: Homo sapiens, BT-549, 48 h
[16] = test system: OVCAR-8; experiment: Anticancer activity against human OVCAR8 cells after 48 hrs by sulforhodamine B assay; details: Homo sapiens, OVCAR-8, 48 h
[17] = test system: ACHN; experiment: Anticancer activity against human ACHN cells after 48 hrs by sulforhodamine B assay; details: Homo sapiens, ACHN, 48 h
[18] = test system: SNB-75; experiment: Anticancer activity against human SNB75 cells after 48 hrs by sulforhodamine B assay; details: Homo sapiens, SNB-75, 48 h
[19] = test system: LOX IMVI; experiment: Anticancer activity against human LOXIMVI cells after 48 hrs by sulforhodamine B assay; details: Homo sapiens, LOX IMVI, 48 h
[20] = test system: UACC-62; experiment: Anticancer activity against human UACC62 cells after 48 hrs by sulforhodamine B assay; details: Homo sapiens, UACC-62, 48 h
[21] = test system: HL-60(TB); experiment: Anticancer activity against human HL-60(TB) cells after 48 hrs by sulforhodamine B assay; details: Homo sapiens, HL-60, 48 h
[22] = test system: SNB-19; experiment: Anticancer activity against human SNB19 cells assessed cell growth at 10 uM after 48 hrs by sulforhodamine B assay relative to control
[23] = test system: SK-MEL-2; experiment: Anticancer activity against human SK-MEL-2 cells assessed cell growth at 10 uM after 48 hrs by sulforhodamine B assay relative to control
[24] = test system: NCI/ADR-RES; experiment: Anticancer activity against human NCI/ADR-RES cells after 48 hrs by sulforhodamine B assay; details: Homo sapiens, NCI/ADR-RES, 48 h
[25] = test system: MDA-MB-468; experiment: Anticancer activity against human MDA-MB-468 cells assessed cell growth at 10 uM after 48 hrs by sulforhodamine B assay relative to control
[26] = test system: SK-MEL-28; experiment: Anticancer activity against human SK-MEL-28 cells assessed cell growth at 10 uM after 48 hrs by sulforhodamine B assay relative to control
[27] = test system: CCRF-CEM; experiment: Anticancer activity against human CCRF-CEM cells after 48 hrs by sulforhodamine B assay; details: Homo sapiens, CCRF-CEM, 48 h
[28] = test system: UO-31; experiment: Anticancer activity against human UO31 cells after 48 hrs by sulforhodamine B assay; details: Homo sapiens, UO-31, 48 h
[29] = test system: MCF7; experiment: Anticancer activity against human MCF7 cells after 48 hrs by sulforhodamine B assay; details: Homo sapiens, MCF7, 48 h
[30] = test system: EKVX; experiment: Anticancer activity against human EKVX cells after 48 hrs by sulforhodamine B assay; details: Homo sapiens, EKVX, 48 h
[31] = test system: MDA-MB-231; experiment: Anticancer activity against human MDA-MB-231 cells after 48 hrs by sulforhodamine B assay; details: Homo sapiens, MDA-MB-231, 48 h
[32] = test system: MCF7; experiment: Anticancer activity against human MCF7 cells assessed cell growth at 10 uM after 48 hrs by sulforhodamine B assay relative to control
[33] = test system: MDA-MB-435; experiment: Anticancer activity against human MDA-MB-435 cells assessed cell growth at 10 uM after 48 hrs by sulforhodamine B assay relative to control
[34] = test system: SK-MEL-5; experiment: Anticancer activity against human SK-MEL-5 cells assessed cell growth at 10 uM after 48 hrs by sulforhodamine B assay relative to control
[35] = test system: NCI-H322M; experiment: Anticancer activity against human NCI-H322M cells after 48 hrs by sulforhodamine B assay; details: Homo sapiens, NCI-H322M, 48 h
[36] = test system: HT-29; experiment: Anticancer activity against human HT-29 cells after 48 hrs by sulforhodamine B assay; details: Homo sapiens, HT-29, 48 h
[37] = test system: SW-620; experiment: Anticancer activity against human SW620 cells after 48 hrs by sulforhodamine B assay; details: Homo sapiens, SW-620, 48 h
[38] = test system: HT-29; experiment: Anticancer activity against human HT-29 cells assessed cell growth at 10 uM after 48 hrs by sulforhodamine B assay relative to control
[39] = test system: NCI-H226; experiment: Anticancer activity against human NCI-H226 cells assessed cell growth at 10 uM after 48 hrs by sulforhodamine B assay relative to control
[40] = test system: HCT-15; experiment: Anticancer activity against human HCT15 cells assessed cell growth at 10 uM after 48 hrs by sulforhodamine B assay relative to control
[41] = test system: Malme-3M; experiment: Anticancer activity against human MALME-3M cells assessed cell growth at 10 uM after 48 hrs by sulforhodamine B assay relative to control
[42] = read-out: LC50 (the source's name)

With `CCCCCCCCCCCCCCCCCC[n+]1ccn(C)c1.FC(F)(F)C(F)(F)[P-](F)(F)(F)(C(F)(F)C(F)(F)F)C(F)(F)C(F)(F)F` the GI50 [1] was 211 nM, the CC50 [1, 42] was 22000 nM and the GI50 [2] was 224 nM. The CC50 [2, 42] was 12700 nM, the Activity [3] was -39.24% and the GI50 [4] was 425 nM. For the same compound, the LC50 (50% lethal concentration) [4] was 5360 nM, the Activity [5] was -53.5% and the GI50 [6] was 322 nM. The CC50 [6, 42] was 3700 nM, the GI50 [7] was 214 nM and the CC50 [7, 42] was 929 nM. It also gave an Activity [8] of -56.11%, a GI50 [9] of 495 nM and a CC50 [9, 42] of 4430 nM. For the same compound, the GI50 [10] was 293 nM, the LC50 [10] was 7460 nM and the GI50 [11] was 353 nM. For the same compound, the LC50 [11] was 4180 nM, the GI50 [12] was 323 nM and the LC50 [12] was 4850 nM. The GI50 [13] was 316 nM, the LC50 (50% lethal concentration) [13] was 3790 nM and the GI50 [14] was 275 nM. The CC50 [14, 42] was 5770 nM, the GI50 [15] was 334 nM and the CC50 [15, 42] was 4200 nM. The GI50 [16] was 491 nM, the LC50 [16] was over 100000 nM and the GI50 [17] was 281 nM. For the same compound, the LC50 [17] was 3550 nM, the GI50 [18] was 419 nM and the CC50 [18, 42] was over 100000 nM. It also gave a GI50 [19] of 164 nM, a CC50 [19, 42] of 678 nM and a GI50 [20] of 500 nM. For the same compound, the LC50 [20] was 4660 nM, the GI50 [21] was 238 nM and the CC50 [21, 42] was over 100000 nM. It also gave an Activity [22] of -34.47%, an Activity [23] of -54.7% and a GI50 [24] of 412 nM. For the same compound, the LC50 [24] was 12500 nM, the Activity [25] was 5.93% and the Activity [26] was -45.82%. For the same compound, the GI50 [27] was 324 nM, the LC50 [27] was over 100000 nM and the GI50 [28] was 365 nM. The LC50 [28] was 5310 nM, the GI50 [29] was 309 nM and the LC50 (50% cell kill) [29] was 4690 nM. It also gave a GI50 [30] of 346 nM, a CC50 [30, 42] of 8910 nM and a GI50 [31] of 378 nM. For the same compound, the CC50 [31, 42] was 4820 nM, the Activity [32] was 2.61% and the Activity [33] was -52.89%. For the same compound, the Activity [34] was -77.4%, the GI50 [35] was 406 nM and the LC50 [35] was 5540 nM. The GI50 [36] was 315 nM, the CC50 [36, 42] was over 100000 nM and the GI50 [37] was 328 nM. The LC50 [37] was 3740 nM, the Activity [38] was -41.19% and the Activity [39] was -58.27%. It also gave an Activity [40] of -23.91% and an Activity [41] of -51.72%.
